Like-named read-outs stand apart in the source and are kept apart here.
Legend:
[1] = test system: right eye of male Wistar rats; assay: Wiping test (potency of pungency); assay type: in vivo
Procedure: The wiping test was performed as described by Szolcsanyl and Jansco-Gabor, Arzneim.-Forsch./Drug Res. 25, 1877 (1975). Briefly, solutions of CAP and its analogues were prepared as described above in successive tenfold dilutions. Each dilution was dropped into the right eye (vehicle being administered to the left eye as negative control) of male Wistar rats weighing 180-250 g, and the total number of protective movements (scratching, wiping of the eye with the foreleg) was counted for 30 min. Each concentration was applied to a total of 6 rats, and a dose-response curve were obtained form the mean value of each group. […] On the basis of the MPP values thus obtained, RPP (relative pain-producing potency) values were determined with respect to the pain-producing potency of CAP, which was taken as 1000.
^a) Methods are described by Szolcsanyi & JanscoGabor.

[2] = test system: acetic acid-induced writhing in mice; assay: Acetic acid-induced writhing (antinociceptive test); assay type: in vivo, male mice (ddk strain); conditions: for ED50: Mus musculus, ip, 0.5 h, read-out: ED50 (95% C.L.); for Potency ratio: indomethacin 1.00
Procedure: Evaluation of antinociceptive effects Following the method described by Koster et al., Fed. proc. 18, 412 (1959), antinociceptive tests were carried out in male mice after intraperitoneal administration of NVA and its analogues. Briefly, four groups of eight male mice (ddk strain) weighing 18-22 g were brought to the laboratory on the day prior to study, and housed overnight with free access to food and water. Solutions of NVA and its analogues, as well as indomethacin were made up to 10% ethanol, 10% […] 80% saline, and then diluted with saline to the required concentrations. The test solution was administered by intraperitoneal injection with single dose of 0.2 mL (vehicle administered as control). 20 min after injection, 0.2 mL of 0.7% acetic acid was injected intraperitoneally to induce writhing. Following injection, the mice were placed […] acid injection, a writhe being defined as a sequence of arching of the back, followed by pelvic rotation and hind limb extension.
^a) Writhes were counted for 30 min after injection of acetic acid
^b) ED50 and 95% confidence limits were calculated by the
Litchfield and Wilcoxon method.

[3] = oral; cited from earlier work
[4] = relative to capsaicin, taken as 1000
[5] = intraperitoneal, mice, acetic acid 20 min after injection, writhes counted for 30 min, 95% confidence limits, Litchfield and Wilcoxon

| Compound | ED50 [2, 5] [mg/kg] | Potency ratio ([2]; intraperitoneal, mice) | other results |
| --- | --- | --- | --- |
| COc1cc(CNC(=O)CCCC/C=C/C(C)C)ccc1O [Capsaicin, trans-8-methyl-N-vanillyl-6-nonenamide] | 0.07 | 15.71 | MPP (Moderate pain-producing potency) ([1]; concentration inducing 32 scratchings, eye instillation, rats, 30 min): 90 µg/mL; median response (number of scratchings) ([1]; counted for 30 min, eye instillation, rats): 32 scratchings; RPP (Relative pain-producing potency) [1, 4]: 1000 |
| CCCCCCCCC(=O)NCc1ccc(OC(=O)CCC(=O)O)c(OC)c1 [Compound 3, N-(4-o-succinicacid-3-methoxybenzyl)-nonamide] | 0.06 | 18.33 | pungency (in words) ([1]; rat, in vivo): nearly equivalent to that of NVA and CAP; MPP (Moderate pain-producing potency) ([1]; rat, in vivo, 30 min): 270 µg/mL; RPP (Relative pain-producing potency) ([1]; rat, in vivo, 30 min): 333 |
| CCCCCCCCC(=O)NCc1ccc(OCC(O)CO)c(OC)c1 (stereo not shown) [Compound 4, N-(4-o-glycerol-3-methoxybenzyl)-nonamide] | 0.09 | 12.22 | – |
| CCCCCCCCC(=O)NCc1ccc(OCC(=O)O)c(OC)c1 [Compound 5] | 0.04 | 27.50 | antinociceptive effect (in words) ([2]; intraperitoneal, mice): the most potent in its antinociceptive effect |
| CCCCCCCCC(=O)NCc1ccc(OCCO)c(OC)c1 [Compound 6, N-(4-o-glycol-3-methoxybenzyl)-nonamide] | 0.14 | 7.86 | – |
| COc1ccc2c(c1)c(CC(=O)O)c(C)n2C(=O)c1ccc(Cl)cc1 [Indomethacin, reference compound] | 1.1 | – | – |
| CCCCCCCCC(=O)NCc1ccc(O)c(OC)c1 [NVA, N-nonanoyl vanillylamide] | – | 13.75 | RPP (Relative pain-producing potency) [1, 4]: 409; ED50 [2]: 0.08 mg/kg |
| CCCCCCCCC=CCCCCCCCC(=O)NCc1ccc(O)c(OC)c1 [olvanil, N-vanillyl-9-octadecenamide] | – | – | ED50 [3]: 170 mg/kg |

Reference: US5221692A, “Ether linked and relatively nonpungent analogues of N-nonanoyl vanillylamide” (National Science Council, priority 1991, dated 1993)
